Data: PubChem BioAssay (NCI)
Several values for one entry are separate records, joined by “and”; a condition that tells them apart may be missing. Equal values may be shown once.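 All cell lines were grown in 96-well plates and treated with compound for 48 hours. Abbreviation: GI50, concentration required for 50% inhibition of growth. TGI: total growth inhibition.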

Experiments:
Test in all cases: NCI anticancer screen, dose series, 48 h
DU-145 prostate = test system: DU-145 prostate
OVCAR-8 ovarian = test system: OVCAR-8 ovarian
KM12 colon = test system: KM12 colon
TK-10 renal = test system: TK-10 renal
HT29 colon = test system: HT29 colon
UACC-257 melanoma = test system: UACC-257 melanoma
MALME-3M melanoma = test system: MALME-3M melanoma
NCI/ADR-RES ovarian = test system: NCI/ADR-RES ovarian
ACHN renal = test system: ACHN renal
A549 NSCLC = test system: A549 NSCLC

Row | SMILES | GI50 (DU-145 prostate) | TGI (DU-145 prostate) | GI50 (OVCAR-8 ovarian) | TGI (OVCAR-8 ovarian) | GI50 (KM12 colon) | TGI (KM12 colon) | GI50 (TK-10 renal) | TGI (TK-10 renal) | GI50 (HT29 colon) | TGI (HT29 colon) | TGI (UACC-257 melanoma) | GI50 (MALME-3M melanoma) | TGI (MALME-3M melanoma) | GI50 (NCI/ADR-RES ovarian) | TGI (NCI/ADR-RES ovarian) | GI50 (ACHN renal) | TGI (ACHN renal) | GI50 (A549 NSCLC) | TGI (A549 NSCLC) | GI50 (UACC-257 melanoma)
1 | O=C(Nc1ccc(Oc2ccc(NC(=O)Nc3ccccc3Cl)cc2)cc1)Nc1ccccc1Cl | 4.53 µM | > 100 µM | 6.83 µM | 23.6 µM | > 100 µM | > 100 µM | 4.72 µM | 45.1 µM | > 21.4 µM | > 100 µM | > 28.2 µM | 15.4 µM | > 96 µM | 10.8 µM | > 63.8 µM | > 22.2 µM | > 100 µM | 2.69 µM | > 26.1 µM | –
2 | O=C(/C=C\c1cc(Br)ccc1O)/C=C/c1cc(Br)ccc1O | 0.814 µM | 2.17 µM | 0.345 µM | 11.6 µM | 1.25 µM | 2.72 µM | 2.05 µM | 4.03 µM | 0.451 µM | 1.84 µM | 4.09 µM | 1.5 µM | 3.08 µM | 0.321 µM | 12.9 µM | 0.661 µM | 2.05 µM | 2.61 µM | 13.5 µM | 1.54 µM
3 | CCC(CC)c1cc(N[C@H]2CC[C@H](N)C2)n2nccc2n1 | 0.708 µM | > 100 µM | 2.77 µM | > 100 µM | 1.7 µM | > 100 µM | 3.58 µM | > 100 µM | 0.735 µM | > 100 µM | 5.87 µM | 2.07 µM | 6.24 µM | 6.41 µM | > 100 µM | 1.44 µM | > 100 µM | 0.511 µM | > 100 µM | 1.84 µM
4 | COC(=O)CC1C2(C)C3=C(C)C(c4ccoc4)CC3OC2C2OC(=O)C3(C)C=CC(=O)C1(C)C23 (centres undefined) | – | 2.06 µM | – | 5.44 µM | – | 3.55 µM | – | 5.94 µM | – | 2.49 µM | 5.02 µM | – | 2.48 µM | – | 14.1 µM | – | 2.52 µM | – | 11.4 µM | –
5 | NC(CP(=O)(O)O)C(=O)O (centres undefined) | – | > 100 µM | – | > 100 µM | – | > 100 µM | – | > 100 µM | – | > 100 µM | > 100 µM | – | > 100 µM | – | > 100 µM | – | > 100 µM | – | > 100 µM | –
6 | Cc1cc(I)cc(CNCCN2CCOCC2)c1O | 26.3 µM | > 100 µM | > 100 µM | > 100 µM | 86.8 µM | > 100 µM | > 100 µM | > 100 µM | > 100 µM | > 100 µM | > 100 µM | > 100 µM | > 100 µM | 12.5 µM | > 100 µM | > 100 µM | > 100 µM | > 100 µM | > 100 µM | > 100 µM
7 | CCCCCCCCCCCCNC(=O)N[C@H](C(=O)N[C@H]1/C=C/CCNC(=O)/C=C/[C@H](C)NC1=O)C(C)C | 0.108 µM | 3.78 µM | 0.463 µM | 4.19 µM | 0.0222 µM | 0.0519 µM | 0.0352 µM | 0.191 µM | 0.0216 µM | 0.331 µM | 1.85 µM | 0.422 µM | 2.99 µM | > 100 µM | > 100 µM | 1.87 µM | > 100 µM | 0.262 µM | 9.07 µM | 0.269 µM
8 | CCNC(=O)Oc1ccc(/C(=C(\C)c2ccc(Cl)cc2)c2ccc(OCCN(CC)CC)cc2)cc1 | 11.1 µM | 24.2 µM | 9.25 µM | 29.1 µM | 4.22 µM | 15.5 µM | 17 µM | 31.8 µM | 2.52 µM | 6.44 µM | 4.36 µM | 1.7 µM | 3.61 µM | 6.8 µM | 22.7 µM | 3.74 µM | 14.6 µM | 5.63 µM | 18.4 µM | 2.11 µM
9 | O=C(Nc1ccn(C2CC(I)C(COC(c3ccccc3)(c3ccccc3)c3ccccc3)O2)c(=O)n1)c1ccccc1 (centres undefined) | – | 21.5 µM | – | 13.1 µM | – | 24 µM | – | 21.5 µM | – | 21.5 µM | 20.4 µM | – | 13.4 µM | – | 20.2 µM | – | 21.5 µM | – | 21.5 µM | –
10 | CCC1(OC(=O)CNC)C(=O)OCc2c1cc1n(c2=O)Cc2cc3ccccc3nc2-1 (centres undefined) | – | 0.0124 µM | – | > 24.4 µM | – | 1.46 µM | – | 30.4 µM | – | 2.64 µM | 0.762 µM | – | 1.31 µM | – | 0.0151 µM | – | 0.0184 µM | – | 0.958 µM | –
11 | COc1cc(-c2cc(-c3cccs3)c(C#N)c(N3CCOCC3)n2)cc(OC)c1OC | 13.7 µM | > 100 µM | > 30.4 µM | > 100 µM | 6.02 µM | > 100 µM | > 39 µM | > 94.1 µM | 3.16 µM | > 100 µM | 9.9 µM | 3.66 µM | > 100 µM | 5.08 µM | > 100 µM | 6.45 µM | > 100 µM | 44.1 µM | > 100 µM | 3.22 µM
12 | CC(C)n1nc(C#Cc2cccc(O)c2)c2c(N)ncnc21 | 1.67 µM and 1.51 µM | 14.5 µM and 11.1 µM | 1.99 µM and 2.41 µM | 30.1 µM and 16.1 µM | 1.75 µM and 2.33 µM | 25.8 µM and 60.8 µM | 2.57 µM and 2.03 µM | 10.1 µM and 5.05 µM | 2.04 µM and 1.74 µM | 50 µM and 19.4 µM | 6.17 µM and 4.95 µM | 0.248 µM and 0.234 µM | 1.38 µM and 0.917 µM | 2.38 µM and 1.87 µM | 24.7 µM and 7.09 µM | 1.05 µM and 0.461 µM | 4.18 µM and 3.96 µM | 2.62 µM and 3.17 µM | 18.3 µM and 14.6 µM | 1.22 µM and 1.63 µM
13 | COc1ccc(/C(=C/c2ccc3ccccc3c2)c2nn[nH]n2)cc1OC | 3.53 µM | 49.2 µM | 7.1 µM | > 100 µM | 2.79 µM | > 100 µM | 18.5 µM | > 100 µM | 2.69 µM | 21.6 µM | > 100 µM | 3.08 µM | > 100 µM | 1.03 µM | > 100 µM | 11.3 µM | > 100 µM | 3.8 µM | > 100 µM | 56.6 µM
14 | NC(=O)c1cc(I)ccc1NC(=O)/C=C/c1ccccc1Cl | 0.837 µM | 5.64 µM | 3 µM | > 38.8 µM | 0.442 µM | 4.9 µM | 2.48 µM | – | 0.362 µM | 14.5 µM | > 100 µM | 0.211 µM | 17.6 µM | 0.506 µM | 4.65 µM | 2.44 µM | > 73.6 µM | 1.18 µM | 25.2 µM | 38.7 µM
15 | Clc1ccc(-c2nc3c(-c4ccccc4)nc(-c4ccccc4)cn3c2-c2ccc(Cl)cc2)cc1 | > 100 µM | > 100 µM | > 100 µM | > 100 µM | > 100 µM | > 100 µM | > 100 µM | > 100 µM | > 100 µM | > 100 µM | > 100 µM | > 100 µM | > 100 µM | > 100 µM | > 100 µM | > 100 µM | > 100 µM | > 100 µM | > 100 µM | > 100 µM
16 | CCOC(=O)C1=C(C)NC(C)=C(C(=O)OCCNC(=O)c2ccc(N=[N+]=[N-])cc2)C1c1ccccc1C(F)(F)F (centres undefined) | – | 21.5 µM | – | 21.5 µM | – | 21.5 µM | – | 31.1 µM | – | 21.5 µM | 21.5 µM | – | 21.5 µM | – | 21.5 µM | – | 21.5 µM | – | 21.5 µM | –
17 | CS(=O)(=O)c1ccc2c(c1)C(=O)c1c-2n(CCCBr)c(=O)c2cc([N+](=O)[O-])ccc12 | 6.25 µM | > 100 µM | 29.3 µM | > 100 µM | > 100 µM | > 100 µM | 40.2 µM | > 100 µM | 29.5 µM | > 100 µM | > 100 µM | 69.6 µM | > 100 µM | 27.3 µM | > 100 µM | 4.98 µM | > 100 µM | 7.34 µM | > 100 µM | 43.7 µM
18 | COC(=O)[C@H](Cc1ccccc1)NNC(=O)c1csc([C@@H](C[C@H](C(C)C)N(C)C(=O)[C@@H](NC(=O)[C@H]2CCCCN2C)C2CC2)OC(C)=O)n1 | – | 25 µM and > 100 µM | – | 25 µM and > 100 µM | – | 25 µM and > 100 µM | – | 25 µM and > 100 µM | – | 25 µM and > 100 µM | > 100 µM | – | > 100 µM | 15.7 µM and 11 µM | 25 µM and > 100 µM | – | 25 µM and > 100 µM | – | 25 µM and > 100 µM | –
19 | Cc1cncc(-c2nc(NCCc3c[nH]c4ccccc34)c3ncn(C(C)C)c3n2)c1 | 4.41 µM | 22.1 µM | 4.6 µM | > 100 µM | 3.36 µM | 12.8 µM | 10.3 µM | 52.8 µM | 2.11 µM | 5.17 µM | 3.85 µM | 2.08 µM | 5.71 µM | 3.69 µM | 24 µM | 3.76 µM | 13.5 µM | 4.28 µM | > 100 µM | 1.91 µM
20 | O=C(CN1CCN(CCN2C(=O)c3cccc4cccc(c34)C2=O)CC1)Nc1ccc2ncsc2c1 | 5.92 µM | 19.6 µM | 3.8 µM | 22.9 µM | 6.16 µM | 25.4 µM | 10.5 µM | 23.7 µM | 3.61 µM | 16.5 µM | 23.7 µM | 7.47 µM | 24 µM | 6.2 µM | 53.8 µM | 4.09 µM | 16.5 µM | 3.58 µM | 15.4 µM | 5.65 µM
21 | Cc1ccc(S(=O)(=O)OCC(=O)Nc2ccc(C(=O)O)c(O)c2)cc1 | 26.8 µM | 75.9 µM | 30.3 µM | 106 µM | 73.6 µM | 199 µM | 207 µM | 464 µM | 38.6 µM | 172 µM | 200 µM | 32.3 µM | 115 µM | 32.2 µM | 162 µM | 43.1 µM | 159 µM | 199 µM | 503 µM | 36.7 µM
22 | O=C(NCCCl)NCCN1c2nc3ccccc3cc2Sc2cc3ccccc3nc21 | 3.28 µM | > 39.4 µM | 3.03 µM | 20.8 µM | 2.67 µM | 16.1 µM | 7.12 µM | 28.1 µM | 1.11 µM | 8.89 µM | 6.55 µM | 0.968 µM | 15.4 µM | 1.61 µM | 13 µM | 3.02 µM | > 45.9 µM | 4.64 µM | 23.1 µM | 1.37 µM
